The test system of this assay is SARS-CoV-2. The experiment in a line: microbe, parasite or virus in culture. The conditions noted are these: Severe acute respiratory syndrome coronavirus 2, Vero C1008, 48 h.

Structures are written as SMILES.

For `Nc1ccc(O)c(C(=O)O)c1` [MESALAMINE], the IC50 is greater than 20 µM. Also, the IC50 (read-out: pIC50 (converted)) is greater than 20 µM.

As for `O[C@H]1[C@H](O)[C@@H](O)O[C@H]2COC(c3ccccc3)O[C@H]12` (stereo not given in full), the IC50 was greater than 20 µM. Further, the IC50 (read-out: pIC50 (converted)) is greater than 20 µM.

With `CCCCCCOC(=O)NC(=N)c1ccc(NCc2nc3cc(C(=O)N(CCC(=O)OCC)c4ccccn4)ccc3n2C)cc1` [DABIGATRAN ETEXILATE], the IC50 was greater than 20 µM. Besides, under “read-out: pIC50 (converted)”, the IC50 was greater than 20 µM.

On to `NC1=NC(=O)N(C2CC(O)C(CO)O2)CN1` (stereo not given), for which the IC50 is greater than 20 µM. Moreover, the IC50 (read-out: pIC50 (converted)) is greater than 20 µM.

Turning to `Cn1nnc2ccc(C(c3ccc(Cl)cc3)n3cncn3)cc21` (stereo not drawn) [rac-VOROZOLE], the IC50 was greater than 20 µM. Moreover, where the note is “read-out: pIC50 (converted)”, the IC50 was greater than 20 µM.

`O=c1c(O)c(-c2ccc(O)cc2)oc2cc(O)cc(O)c12` [KAEMPFEROL] showed an IC50 greater than 20 µM. Further, the IC50 (read-out: pIC50 (converted)) was greater than 20 µM.

Molecule `Cc1ccsc1/C=C/C1=NCCCN1C` [MORANTEL] showed an IC50 greater than 20 µM. For the same molecule, where the note is “read-out: pIC50 (converted)”, the IC50 was greater than 20 µM.

Regarding `C[C@@H]1NC(=O)NC1=O`, the IC50 was greater than 20 µM. For the same molecule, the IC50 (read-out: pIC50 (converted)) is greater than 20 µM.

`CCCCNC(=O)NC1CCN(c2ncnc3cc(OC)c(OC)cc23)CC1` [BUQUINERAN] had an IC50 greater than 20 µM. For the same molecule, the IC50 (read-out: pIC50 (converted)) is greater than 20 µM.

For `C=C1C[C@@H]2[C@H](CC[C@]3(C)C(=O)CC[C@@H]23)[C@@]2(C)C=CC(=O)C=C12` [EXEMESTANE], the IC50 was greater than 20 µM. In addition, the IC50 (read-out: pIC50 (converted)) was greater than 20 µM.

Turning to `O=c1cc(-c2ccccc2)oc2c(O)c(O)ccc12` [7,8-DIHYDROXYFLAVONE], the IC50 was greater than 20 µM. Besides, under “read-out: pIC50 (converted)”, the IC50 is greater than 20 µM.

In turn, `O=c1cc(-c2ccccc2)oc2cccc(O)c12` [5-HYDROXYFLAVONE] gave an IC50 greater than 20 µM. Also, where the note is “read-out: pIC50 (converted)”, the IC50 was greater than 20 µM.

For the molecule `O=C(Nc1cccnn1)N1CCC(=Cc2cccc(Oc3ccc(C(F)(F)F)cn3)c2)CC1`, the IC50 was greater than 20 µM. Where the note is “read-out: pIC50 (converted)”, the IC50 is greater than 20 µM.

`O=[N+]([O-])c1cc([As](=O)(O)O)ccc1O` [ROXARSONE] displayed an IC50 greater than 20 µM. Moreover, the IC50 (read-out: pIC50 (converted)) was greater than 20 µM.

`CS(=O)(=O)OCCCCOS(C)(=O)=O` [BUSULFAN] displayed an IC50 greater than 20 µM. In addition, under “read-out: pIC50 (converted)”, the IC50 was greater than 20 µM.

Take `COc1cc([C@@H]2c3cc4c(cc3[C@@H](O[C@@H]3O[C@@H]5CO[C@@H](C)O[C@H]5[C@H](O)[C@H]3O)[C@H]3COC(=O)[C@H]23)OCO4)cc(OC)c1O` [ETOPOSIDE]: the IC50 is greater than 20 µM. Besides, the IC50 (read-out: pIC50 (converted)) is greater than 20 µM.

With `CC(=O)Nc1ccc(C(=O)O)cc1` [ACEDOBEN], the IC50 was greater than 20 µM. In addition, the IC50 (read-out: pIC50 (converted)) was greater than 20 µM.

Regarding `COc1cccc(CCc2ccccc2OCC(CN(C)C)OC(=O)CCC(=O)O)c1` (stereo not given) [SARPOGRELATE], the IC50 was greater than 20 µM. The IC50 (read-out: pIC50 (converted)) is greater than 20 µM.

Take `CC(CCc1ccc(O)cc1)NCCc1ccc(O)c(O)c1` (stereo not given) [DOBUTAMINE]: the IC50 was greater than 20 µM. Moreover, for the setting “read-out: pIC50 (converted)”, the IC50 was greater than 20 µM.

For the molecule `Cc1c(C(N)=O)cc([N+](=O)[O-])cc1[N+](=O)[O-]` [DINITOLMIDE], the IC50 is greater than 20 µM. For the same molecule, the IC50 (read-out: pIC50 (converted)) was greater than 20 µM.

Molecule `C=CCNS(=O)(=O)c1cc(S(N)(=O)=O)c(Cl)cc1/N=C/C=C(\C)O` had an IC50 greater than 20 µM. Also, the IC50 (read-out: pIC50 (converted)) was greater than 20 µM.

The molecule `c1cc2c(cc1[C@H]1OC[C@H]3[C@@H]1CO[C@@H]3c1ccc3c(c1)OCO3)OCO2` [SESAMIN] displayed an IC50 greater than 20 µM. In addition, for the setting “read-out: pIC50 (converted)”, the IC50 was greater than 20 µM.

Molecule `NC(=O)NC(=O)Cc1ccccc1` [PHENACEMIDE] yielded an IC50 greater than 20 µM. Besides, the IC50 (read-out: pIC50 (converted)) was greater than 20 µM.

Turning to `O=C(NC1CCNCC1)c1n[nH]cc1NC(=O)c1c(Cl)cccc1Cl` [AT-7519], the IC50 is greater than 20 µM. Further, under “read-out: pIC50 (converted)”, the IC50 was greater than 20 µM.

In turn, `CCC[C@@H]1C[C@@H](C(=O)N[C@@H]([C@H]2O[C@H](SC)[C@H](O)[C@@H](O)[C@@H]2O)[C@@H](C)O)N(C)C1` gave an IC50 greater than 20 µM. In addition, the IC50 (read-out: pIC50 (converted)) was greater than 20 µM.

Values taken from ChEMBL document CHEMBL4651402, “Screening of ~5500 FDA-approved drugs and clinical candidates for anti-SARS-CoV-2 activity” (2021).
